Where a name gives a salt, the structure may show the parent alone.
Molecular target: Myeloperoxidase (MPO) (Homo sapiens, UniProt P05164)
Experiment: taurine chloramine chlorination assay
Type: biochemical

Sequence of Myeloperoxidase (MPO) (P05164 165-273): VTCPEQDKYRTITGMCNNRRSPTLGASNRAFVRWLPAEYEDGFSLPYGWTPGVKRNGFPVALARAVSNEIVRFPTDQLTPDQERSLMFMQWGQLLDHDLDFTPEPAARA
Sequence of Myeloperoxidase (MPO) (P05164 279-745): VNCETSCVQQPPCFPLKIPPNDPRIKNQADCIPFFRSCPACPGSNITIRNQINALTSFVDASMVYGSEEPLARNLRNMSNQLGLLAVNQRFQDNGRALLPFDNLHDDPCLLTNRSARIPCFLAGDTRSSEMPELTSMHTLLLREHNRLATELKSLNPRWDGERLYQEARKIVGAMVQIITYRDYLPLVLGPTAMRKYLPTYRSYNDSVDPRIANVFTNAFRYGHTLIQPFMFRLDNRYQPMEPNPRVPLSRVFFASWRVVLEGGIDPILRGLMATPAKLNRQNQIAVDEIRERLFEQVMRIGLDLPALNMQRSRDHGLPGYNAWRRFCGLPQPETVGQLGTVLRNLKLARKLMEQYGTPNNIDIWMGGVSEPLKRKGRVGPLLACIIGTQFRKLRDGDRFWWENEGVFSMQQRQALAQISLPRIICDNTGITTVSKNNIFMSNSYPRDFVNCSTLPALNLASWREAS

## O=S(=O)(O)CCS [mesna, 2-mercaptoethanesulfonic acid sodium salt]
  IC50: ~5 µM
